From patent US10837001B2, “Cardiomyocyte maturation platform” (The Regents of the University of California, priority 2016, dated 2020)

Key:
iPSC-derived CM [1] = details: endothelial cells/cardiomyocyte co-culture; cited from earlier work
iPSC-derived CM [2] = test: qPCR of maturation markers with EC-conditioned medium / EC co-culture and ET or notch inhibition; assay type: cell-based, human; details: 20 μM, EC and CM co-cultured, 7 days
Experimental: EC and iPSC-derived CMs were plated onto Matrigel Growth Factor Reduced (BD) coated dishes. Cells were fed with RPMI media supplemented with B27 (Life Technologies) and Endothelial Cell Growth Supplement (ECGS; BD Biosciences) every 2-3 days. EC-conditioned medium was collected after 1-3 days of EC growth. Endothelin inhibition was achieved by adding 10 nM PD145065 inhibitor (EMD Millipore) and notch inhibition with 20 μM DAPT (Sigma) at every media change. Cells were fed on days 1 and 4 and then harvested after 7 days.
RNA was extracted using TRIzol (Life Technologies) according to manufacturer's instructions. Three micrograms of RNA was used to generate cDNA using the iSCRIPT cDNA Synthesis Kit (Bio-Rad). The reaction mix included SYBR green chemistry and primers generated by IDT Technologies. The samples were analyzed using an iQ5 Real Time PCR Detection System (Bio-Rad). The control sample, compared to EC/iPSC-derived CM co-culture, consisted of a mix of equal parts EC and iPSC-derived CM RNA that were isolated separately. (n=3; *p<0.05 **p<0.01 ***p<0.001, Student's t-test)

[3] = tested on: iPSC-derived cardiomyocytes; test: Pharmacological treatment of iPSC-derived cardiomyocytes (beat rate, calcium transient); assay type: cell-based, human
Experimental: The iPSC-derived cardiomyocytes have been engineered to express a calcium indicator (GCaMP6f reporter) that emits fluorescence in the presence of cytosolic calcium. Calcium transients were measured using an epifluorescent microscope with an inverted 10× objective (IX70 Olympus, Tokyo, Japan). Images were captured using a SPOT Idea 3.0 megapixel color fluorescent camera and SPOT acquisition software (SPOT Imaging Solutions, Sterling Heights, Mich.). The cells were placed in a 37° C. heated stage during imaging. The video was captured at 33 frames/second with 8×8 binning. ImageJ was used to process and extract the temporal fluorescence intensity of the acquired video data. Subsequent data were analyzed using MATLAB software (MathWorks, Torrance, Calif.). A customized algorithm determined the troughs and peaks of each calcium wave and measured the amplitude, max upslope, max downslope, time to 50% decay, and beat rate. Additional measurements included the effect of caffeine on the slope of amplitude change. Baseline and drug recordings were taken before and after 10 min incubation with the drug(s) on the 37° C. stage. All recordings were taken over 1 min. The order of the β-adrenergic drug treatments was baseline, 1 μM isoproterenol (Sigma #16504), and 1 μM Isoproterenol+10 μM Propranolol (Sigma # P0884). The effect of caffeine (Tocris #2793) on calcium signaling was assessed at a final concentration of 20 mM. The video recordings were acquired before and during the addition of caffeine.

**Q.** Which cTNT expression (iPSC-derived CM [1]) does the source give for `C[C@H](NC(=O)Cc1cc(F)cc(F)c1)C(=O)N[C@H](C(=O)OC(C)(C)C)c1ccccc1` [DAPT] here?
**A.** decrease

**Q.** And the “Maturation markers Junctin, SERCA2a, CaV1.2” value (iPSC-derived CM [2])?
**A.** decrease

**Q.** For `Cn1c(=O)c2c(ncn2C)n(C)c1=O` [caffeine], which Calcium release ([3]; 20 mM, 3D culture vs 2D) is on record?
**A.** more rapid release of calcium

**Q.** What about the “Time to maximum calcium concentration” value ([3]; 20 mM, 3D culture vs 2D) of the same molecule?
**A.** quicker

**Q.** What about the “Upslope (velocity of calcium release)” value ([3]; 20 mM, 3D culture vs 2D) of the same molecule?
**A.** steeper

**Q.** Which Beat rate ([3]; 1 μM, 10 min incubation) does the source give for `CC(C)NCC(O)c1ccc(O)c(O)c1` (centres unmarked) [isoproterenol] here?
**A.** increased their beat rate

**Q.** And the Beat rate ([3]; cells cultured in 3D compared to cells in 2D culture)?
**A.** increased beat rate

**Q.** With `CC(C)NCC(O)COc1cccc2ccccc12` (centres unmarked) [propranolol] as the molecule, how does the Beat rate ([3]; 10 μM added after 1 μM isoproterenol) read?
**A.** decreased to baseline levels
